According to US20230094952A1, “Method for Culturing Hematopoietic Stem Cells” (Sumitomo Pharma Co., Ltd., priority 2019, published 2023):

Experiments:
[1] = system: mouse long-term hematopoietic stem cells; assay: Combination test with UM171 on mouse long-term hematopoietic stem cells; format: cell-based; conditions: n=2
Description: The cells after classification were seeded in a 96-well plate. A cell culture medium was prepared by adding Stem Cell Factor (SCF, manufactured by PeproTech, Inc.) and Thrombopoietin (TPO, manufactured by PeproTech, Inc.) to StemSpan SFEM culture medium (manufactured by […] Technologies Inc.) and added in advance to a cell culture 96-well plate (manufactured by BD Biosciences) at 100 μL/well, and the cells sorted with the FACS Aria II cell sorter (BD Biosciences) were then seeded at 10 cells/well.
The test compounds each in the form of 10 mM DMSO solution were diluted with the cell culture medium to a final concentration of 1 μM, and added to the cells seeded after classification through medium exchange to a final volume of 200 μL/well. Thereafter, the cells were cultured in a CO2 incubator under conditions of 37° C. and 5% CO2 for 1 week.
After culture, the cells were stained with the antibodies for the surface markers c-Kit and Sca-1, Ter-119, B220, CD3, CD4, CD8a, Gr-1, and CD11b, and the ratio and post-growth cell count of a KLS fraction (c-Kit^+, Lin^−, Sca-1^+) or an mCherry-positive fraction given with use of a FACS Aria II cell sorter were analyzed by using FlowJo (BD Biosciences). The mCherry-positive fraction is a cell fraction expressing the Hoxb5 gene, and the KLS fraction is a cell fraction being c-Kit-positive, Lin-negative, and Sca-1-positive, and includes hematopoietic stem cells and multipotent progenitor cells as main components.
A DMSO solution of artemether was adjusted with the cell culture medium to three final concentrations (0.1 μM, 1 μM, 10 μM), and a DMSO solution of UM171 was adjusted with the cell culture medium to four final concentrations (0.1 μM, 0.3 μM, 1 μM, 3 μM), and cell culture was performed at n=2 by the same method as in Example 1. The cell culture and evaluation criteria were the same as those in Example 2.

[2] = system: mouse HoxB5; assay: Confirmation test by gene expression of mouse HoxB5 (qRT-PCR); format: cell-based; conditions: for mGAPDH Ct value / mHoxB5 Ct value: day 7 of culture; for Ct value difference: mHoxB5 minus mGAPDH
Description: Cells cultured in the presence of artemether were evaluated by gene expression of mouse HoxB5. Cells were cultured in the same manner as in Example 3, and the cells after culture were treated with a Single Cell to CT qRT-PCR kit (manufactured by Life Technologies) according to the instruction of the kit. The cells treated were washed once with PBS, a cell-lysing solution was then added thereto, and the resultant was subjected to RNA extraction followed by reverse transcription reaction for cDNA synthesis, amplified through Taqman Gene Expression Assay in 14 cycles, and diluted with 1×TE buffer (pH 8.0). Real-time PCR was performed with the following Taqman probes at 95° C. for 3 seconds and at 60° C. for 30 seconds in 40 cycles to amplify the sample (HoxbB5: Mm00657672 (manufactured by Thermo Fisher Scientific), Gapdh: Mm99999915-g1 (manufactured by Thermo Fisher Scientific)). All the thermal cycler operations were analyzed by using a QuantStudio 6 (manufactured by Applied Biosystems) (Table 5).
From Table 5, we were able to confirm, by allowing the compound to act, the expression of the long-term hematopoietic stem cell marker HoxB5 in cells on day 7 of culture under culture conditions such that the mouse HoxB5 Ct value was 30 or less and the ACT value was 16 or less.

[3] = artemether 0.1 μM + UM171 0.1 μM
[4] = artemether 0.1 μM + UM171 0.3 μM
[5] = artemether 10 μM + UM171 0.1 μM
[6] = artemether 10 μM + UM171 0.3 μM

CO[C@H]1O[C@@H]2O[C@@]3(C)CC[C@H]4[C@H](C)CC[C@@H]([C@H]1C)[C@@]24OO3 [Example 1-30, artemether, reference compound]
KLS-positive rate [1, 3]: 52.0%
Viable cell count [1, 3]: 430.0 cell
mCherry-positive rate [1, 3]: 51.8%
KLS-positive rate [1, 4]: 42.0%
Viable cell count [1, 4]: 257.0 cell
mCherry-positive rate [1, 4]: 78.1%
KLS-positive rate ([1]; artemether 0.1 μM + UM171 1 μM): 93.4%
Viable cell count ([1]; artemether 0.1 μM + UM171 1 μM): 28.5 cell
mCherry-positive rate ([1]; artemether 0.1 μM + UM171 1 μM): 100.0%
KLS-positive rate ([1]; artemether 0.1 μM + UM171 3 μM): 60.6%
Viable cell count ([1]; artemether 0.1 μM + UM171 3 μM): 101.5 cell
mCherry-positive rate ([1]; artemether 0.1 μM + UM171 3 μM): 82.4%
KLS-positive rate ([1]; artemether 1 μM + UM171 0.1 μM): 33.1%
Viable cell count ([1]; artemether 1 μM + UM171 0.1 μM): 269.0 cell
mCherry-positive rate ([1]; artemether 1 μM + UM171 0.1 μM): 96.3%
KLS-positive rate ([1]; artemether 1 μM + UM171 0.3 μM): 48.6%
Viable cell count ([1]; artemether 1 μM + UM171 0.3 μM): 151.0 cell
mCherry-positive rate ([1]; artemether 1 μM + UM171 0.3 μM): 99.1%
KLS-positive rate ([1]; artemether 1 μM + UM171 1 μM): 93.7%
Viable cell count ([1]; artemether 1 μM + UM171 1 μM): 23.0 cell
mCherry-positive rate ([1]; artemether 1 μM + UM171 1 μM): 100.0%
KLS-positive rate ([1]; artemether 1 μM + UM171 3 μM): 67.3%
Viable cell count ([1]; artemether 1 μM + UM171 3 μM): 23.5 cell
mCherry-positive rate ([1]; artemether 1 μM + UM171 3 μM): 100.0%
KLS-positive rate [1, 5]: 56.7%
Viable cell count [1, 5]: 122.0 cell
mCherry-positive rate [1, 5]: 99.6%
KLS-positive rate [1, 6]: 91.1%
Viable cell count [1, 6]: 38.0 cell
mCherry-positive rate [1, 6]: 100.0%
KLS-positive rate ([1]; artemether 10 μM + UM171 1 μM): 95.9%
Viable cell count ([1]; artemether 10 μM + UM171 1 μM): 9.5 cell
mCherry-positive rate ([1]; artemether 10 μM + UM171 1 μM): 100.0%
KLS-positive rate ([1]; artemether 10 μM + UM171 3 μM): 94.7%
Viable cell count ([1]; artemether 10 μM + UM171 3 μM): 19.0 cell
mCherry-positive rate ([1]; artemether 10 μM + UM171 3 μM): 96.9%
mGAPDH Ct value ([2]; compound 0.03 μM): 13.12
mHoxB5 Ct value ([2]; compound 0.03 μM): 30.72
mGAPDH Ct value ([2]; compound 0.1 μM): 13.23
mHoxB5 Ct value ([2]; compound 0.1 μM): 30.57
mGAPDH Ct value ([2]; compound 0.3 μM): 14.47
mHoxB5 Ct value ([2]; compound 0.3 μM): 28.79
mGAPDH Ct value ([2]; compound 1 μM): 13.02
mHoxB5 Ct value ([2]; compound 1 μM): 31.18
mGAPDH Ct value ([2]; compound 3 μM): 13.90
mHoxB5 Ct value ([2]; compound 3 μM): 28.99
mGAPDH Ct value ([2]; compound 10 μM): 17.68
mHoxB5 Ct value ([2]; compound 10 μM): 27.62
Ct value difference ([2]; compound 0.03 μM): 17.60
Ct value difference ([2]; compound 0.1 μM): 17.34
Ct value difference ([2]; compound 0.3 μM): 14.31
Ct value difference ([2]; compound 1 μM): 18.16
Ct value difference ([2]; compound 3 μM): 15.10
Ct value difference ([2]; compound 10 μM): 9.94
